Experimental data as given in article PMC4840323, “Plasiatine, an Unprecedented Indole–Phenylpropanoid Hybrid from Plantago asiatica as a Potent Activator of the Nonreceptor Protein Tyrosine Phosphatase Shp2” (Scientific Reports, 2016).

Biological target: T1, Shp2 (Src homology 2-containing phosphotyrosine phosphatase 2) (Homo sapiens, UniProt Q06124)
T1 construct: gene PTPN11; GST-PTP fusion proteins of human Shp2 (residues 205–597)
T1 sequence (Q06124 205-593): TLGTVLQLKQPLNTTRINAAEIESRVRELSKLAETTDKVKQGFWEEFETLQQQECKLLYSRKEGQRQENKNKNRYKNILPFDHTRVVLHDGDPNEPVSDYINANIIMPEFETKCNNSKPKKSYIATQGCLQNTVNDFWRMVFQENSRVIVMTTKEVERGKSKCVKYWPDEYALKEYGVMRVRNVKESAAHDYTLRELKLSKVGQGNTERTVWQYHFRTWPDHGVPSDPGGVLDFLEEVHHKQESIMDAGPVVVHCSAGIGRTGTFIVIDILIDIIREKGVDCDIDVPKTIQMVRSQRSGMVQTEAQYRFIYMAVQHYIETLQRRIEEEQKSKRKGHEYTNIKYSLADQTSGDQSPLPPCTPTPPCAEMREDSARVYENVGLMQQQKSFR
Assay: activation of recombinant GST-Shp2 phosphatase activity, DiFMUP fluorescence assay
Assay type: biochemical

COc1cc([C@H]2Oc3cc4c(cc3[C@@H]2CO)NC(=O)[C@@]4(O)CC#N)ccc1O [compound 1, plasiatine]
EC50: 0.97 µM
